Where only a bound is given, the exact number is not on record here.

The test system of this experiment is 8XTBD luciferase reporter (YAP reporter) in HEK293T cells. Briefly: YAP Reporter Assay. It counts as cell-based. To be noted: Homo sapiens, HEK-293T; HEK293T cells stably transfected with 8XTBD luciferase reporter and pRLTK; 24-hr incubation; top concentration 3 μM; read-out: Firefly Luciferase IC50. The essentials: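 HEK293T cells stably carrying 8XTBD firefly luciferase and TK-renilla (3×10^3 cells/well) dosed 3-4 h after plating with compounds from 3 μM final, 1:3 dilution, 10 points, quadruplicates. After 24 h at 37° C, Dual-Glo readings gave IC50 and maximum inhibition reported separately for firefly and renilla.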
For orientation: Reporter assays use an easily measured gene product as a stand-in for the process of interest.
Take `COc1cc(-c2ccc(C(F)(F)F)cc2)c2ncc(C(=O)N[C@H](C)CO)cc2c1` [Compound 98, N-[(1R)-2-hydroxy-1-methyl-ethyl]-6-methoxy-8-[4-(trifluoromethyl)phenyl]quinoline-3-carboxamide]: the IC50 – broadly, the midpoint of a concentration-inhibition curve – is below 100 nM.

With `COc1cc(-c2ccc(C(F)(F)F)cc2)c2ccc(C(=O)N[C@@H](C)CO)cc2c1` [Compound 296, (S)—N-(1-Hydroxypropan-2-yl)-7-methoxy-5-(4-(trifluoromethyl)phenyl)-2-naphthamide], the IC50 was below 100 nM.

As for `COCCC(=O)NCCOCCOCCNC(=O)c1ccc2c(-c3ccc(C(F)(F)F)cc3)cccc2c1` [Compound 77, N-(5-oxo-2,9,12-trioxa-6-azatetradecan-14-yl)-5-(4-(trifluoromethyl)phenyl)-2-naphthamide], the half-inhibitory concentration (IC50) lay within 100 to 1000 nM.

Turning to `O=C(NCCCCl)c1ccc2c(-c3ccc(C(F)(F)F)cc3)cccc2c1` [Compound 265, N-(3-chloropropyl)-5-(4-(trifluoromethyl)phenyl)-2-naphthamide], the IC50 fell in the range of 100 to 1000 nM.

As to `O=C(NCc1ccnc(COc2ccon2)n1)c1ccc2c(-c3ccc(C(F)(F)F)cc3)cccc2c1` [Compound 171, N-((2-((Isoxazol-3-yloxy)methyl)pyrimidin-4-yl)methyl)-5-(4-(trifluoromethyl)phenyl)-2-naphthamide], the IC50 is 100 to 1000 nM.

With `CC(C)NC(=O)c1ccc2c(-c3ccc(C(F)(F)F)cc3)cc3onnc3c2c1` [Compound 35, N-isopropyl-5-[4-(trifluoromethyl)phenyl]benzo[e][1,2,3]benzoxadiazole-8-carboxamide], the half-inhibitory concentration (IC50) fell in the range of 100 to 1000 nM.

Regarding `NC(=O)c1nc(CNC(=O)c2ccc3c(-c4ccc(C(F)(F)F)cc4)cccc3c2)ns1` [Compound 184, 3-((5-(4-(Trifluoromethyl)phenyl)-2-naphthamido)methyl)-1,2,4-thiadiazole-5-carboxamide], the IC50 was below 100 nM.

In the case of `C[C@H](CCN(C)C)NC(=O)c1cnc2c(-c3ccc(C(F)(F)F)cc3)cccc2c1` [Compound 319, N-[(1R)-3-(Dimethylamino)-1-methyl-propyl]-8-[4-(trifluoromethyl)phenyl]quinoline-3-carboxamide], the IC50 lay within 100 to 1000 nM.

`C[C@@H](NC(=O)c1ccc2c(-c3ccc(C(F)(F)F)cc3)cccc2c1)c1cccc(N(C)C)n1` [Compound 286, (R)—N-(1-(6-(dimethylamino)pyridin-2-yl)ethyl)-5-(4-(trifluoromethyl)phenyl)-2-naphthamide]: the IC50 was below 100 nM.

On to `C[C@@H](NC(=O)c1ccc2c(-c3ccc(C(F)(F)F)cc3)cccc2c1)C1CNC1` [Compound 203, (R)—N-(1-(azetidin-3-yl)ethyl)-5-(4-(trifluoromethyl)phenyl)-2-naphthamide], for which the IC50 is below 100 nM.

For the compound `C[C@H](NC(=O)c1ccc2c(-c3ccc(C(F)(F)F)cc3)cccc2c1)c1cccc(N(C)C)n1` [Compound 287, (S)—N-(1-(6-(dimethylamino)pyridin-2-yl)ethyl)-5-(4-(trifluoromethyl)phenyl)-2-naphthamide], the 50% inhibitory concentration (IC50) is 100 to 1000 nM.

On to `C[C@@H](NC(=O)c1ccc2c(-c3ccc(C(F)(F)F)cc3)cccc2c1)C1CN(C2CC2)C1` [Compound 320, (R)-N-(1-(1-cyclopropylazetidin-3-yl)ethyl)-5-(4-(trifluoromethyl)phenyl)-2-naphthamide], for which the IC50 was in the range of 100 to 1000 nM.

In the case of `CC(C)NC(=O)c1ccc2c(-c3ccc(C(F)(F)F)cc3)cc(Br)c(N)c2c1` [Compound 31, 8-amino-7-bromo-N-isopropyl-5-(4-(trifluoromethyl)phenyl)-2-naphthamide], the IC50 was below 100 nM.

On to `O=C(O)c1ccc2c(-c3ccc(C(F)(F)F)cc3)cccc2c1O` [Compound 335, 1-hydroxy-5-(4-(trifluoromethyl)phenyl)-2-naphthoic Acid], for which the IC50 is below 100 nM.

For `O=C(NCc1ncsn1)c1ccc2c(-c3ccc(C(F)(F)F)cc3)cccc2c1` [Compound 193, N-((1,2,4-thiadiazol-3-yl)methyl)-5-(4-(trifluoromethyl)phenyl)-2-naphthamide], the IC50 is below 100 nM.

Regarding `CC(C)N1CC([C@H](C)NC(=O)c2ccc3c(-c4ccc(C(F)(F)F)cc4)cccc3c2)C1` [Compound 143, N-[(1S)-1-(1-isopropylazetidin-3-yl)ethyl]-5-[4-(trifluoromethyl)phenyl]naphthalene-2-carboxamide], the 50% inhibitory concentration (IC50) is 1000 to 3000 nM.

As to `C[C@@H](CCO)NC(=O)c1ccc2c(-c3ccc(C(F)(F)F)cc3)cccc2c1` [Compound 166, N-[(1S)-3-hydroxy-1-methyl-propyl]-5-[4-(trifluoromethyl)phenyl]naphthalene-2-carboxamide], the IC50 was below 100 nM.

Take `C[C@H](NC(=O)c1ccc2c(-c3ccc(C(F)(F)F)cc3)cccc2c1)c1cn(C)cn1` [Compound 195, (S)—N-(1-(1-methyl-1H-imidazol-4-yl)ethyl)-5-(4-(trifluoromethyl)phenyl)-2-naphthamide]: the IC50 is below 100 nM.

As for `CC(C)NC(=O)c1ccc2c(-c3ccc(C(F)(F)F)cc3)ccc(N)c2c1` [Compound 16, 8-amino-N-isopropyl-5-(4-(trifluoromethyl)phenyl)-2-naphthamide], the IC50 is below 100 nM.

With `CCNS(=O)(=O)c1ccc2c(-c3ccc(C(F)(F)F)cc3)cccc2c1` [Compound 5, N-ethyl-5-(4-(trifluoromethyl)phenyl)naphthalene-2-sulfonamide], the IC50 was below 100 nM.

As to `C[C@@H](NC(=O)c1cnc2c(-c3ccc(C(F)(F)F)cc3)cccc2c1)C1CN(CC(F)F)C1` [Compound 317, (R)—N-(1-(1-(2,2-difluoroethyl)azetidin-3-yl)ethyl)-8-(4-(trifluoromethyl)phenyl)quinoline-3-carboxamide], the IC50 lay within 100 to 1000 nM.

In the case of `C[C@H](NC(=O)c1ccc2c(-c3ccc(C(F)(F)F)cc3)cccc2n1)c1ccccn1` [Compound 244, (S)—N-(1-(Pyridin-2-yl)ethyl)-5-(4-(trifluoromethyl)phenyl)quinoline-2-carboxamide], the IC50 was below 100 nM.

Take `[N-]=[N+]=NCCCNC(=O)c1ccc2c(-c3ccc(C(F)(F)F)cc3)cccc2c1` [Compound 256, N-(3-azidopropyl)-5-(4-(trifluoromethyl)phenyl)-2-naphthamide]: the IC50 was in the range of 100 to 1000 nM.

Regarding `C[C@@H](NC(=O)c1cnc2c(-c3ccc(C(F)(F)F)cc3)cccc2c1)C1CNC1` [Compound 158, N-[(1R)-1-(Azetidin-3-yl)ethyl]-8-[4-(trifluoromethyl)phenyl]quinoline-3-carboxamide], the concentration for half-maximal inhibition (IC50) fell in the range of 100 to 1000 nM.

As to `N#C/C=C/CCNC(=O)c1ccc2c(-c3ccc(C(F)(F)F)cc3)cccc2c1` [Compound 217, N-[(E)-4-cyanobut-3-enyl]-5-[4-(trifluoromethyl)phenyl]naphthalene-2-carboxamide], the IC50 is below 100 nM.

Regarding `CNCC(C)NC(=O)c1ccc2c(-c3ccc(C(F)(F)F)cc3)cccc2c1` (stereo not drawn) [Compound 92, N-(1-(methylamino)propan-2-yl)-5-(4-(trifluoromethyl)phenyl)-2-naphthamide], the IC50 fell in the range of 100 to 1000 nM.

`CC(C)NC(=O)c1cnc2c(-c3ccc(C(F)(F)F)cc3)cccc2c1` [Compound 4, N-isopropyl-8-(4-(trifluoromethyl)phenyl)quinoline-3-carboxamide]: the IC50 was below 100 nM.

Consider `N#Cc1cc(CNC(=O)c2ccc3c(-c4ccc(C(F)(F)F)cc4)cccc3c2)ccn1` [Compound 186, N-((2-cyanopyridin-4-yl)methyl)-5-(4-(trifluoromethyl)phenyl)-2-naphthamide], for which the IC50 is below 100 nM.

With `O=C(NCCC/C=C/COc1ccon1)c1ccc2c(-c3ccc(C(F)(F)F)cc3)cccc2c1` [Compound 198, N-[(E)-6-isoxazol-3-yloxyhex-4-enyl]-5-[4-(trifluoromethyl)phenyl]naphthalene-2-carboxamide], the IC50 was below 100 nM.

With `O=C(NCc1ccccc1)c1ccc2c(-c3ccc(C(F)(F)F)cc3)cccc2c1` [Compound 241, N-benzyl-5-(4-(trifluoromethyl)phenyl)-2-naphthamide], the IC50 was below 100 nM.

Take `C[C@@H](NC(=O)c1cnc2c(-c3ccc(C(F)(F)F)cc3)cccc2c1)C1CN(CCF)C1` [Compound 318, (R)—N-(1-(1-(2-fluoroethyl)azetidin-3-yl)ethyl)-8-(4-(trifluoromethyl)phenyl)quinoline-3-carboxamide]: the IC50 lay within 100 to 1000 nM.

In the case of `CC(=O)N(C)c1cc(-c2ccc(C(F)(F)F)cc2)c2ccc(C(=O)NC(C)C)cc2c1` [Compound 51, N-isopropyl-7-(N-methylacetamido)-5-(4-(trifluoromethyl)phenyl)-2-naphthamide], the IC50 lay in the range of 100 to 1000 nM.

For `C[C@@H](NC(=O)c1cnc2c(-c3ccc(C(F)(F)F)cc3)cccc2c1)C1(O)CNC1` [Compound 141, (R)—N-(1-(3-hydroxyazetidin-3-yl)ethyl)-8-(4-(trifluoromethyl)phenyl)quinoline-3-carboxamide], the IC50 is 1000 to 3000 nM.

Regarding `COC[C@H](C)NC(=O)c1cnc2c(-c3ccc(C(F)(F)F)cc3)cc(OC)cc2c1` [Compound 109, 6-methoxy-N-[(1S)-2-methoxy-1-methyl-ethyl]-8-[4-(trifluoromethyl)phenyl]quinoline-3-carboxamide], the IC50 was below 100 nM.

`C[C@H](NC(=O)c1ccc2c(-c3ccc(C(F)(F)F)cc3)cccc2c1)c1nnn(C)n1` [Compound 278, (S)—N-(1-(2-methyl-2H-tetrazol-5-yl)ethyl)-5-(4-(trifluoromethyl)phenyl)-2-naphthamide]: the IC50 was 100 to 1000 nM.

Regarding `CC(C)NC(=O)c1ccc2c(-c3ccc(C(F)(F)F)cc3)ccc(NC(=O)OC(C)(C)C)c2c1` [Compound 12, Tert-Butyl (7-(isopropylcarbamoyl)-4-(4-(trifluoromethyl)phenyl)naphthalen-1-yl)carbamate], the IC50 fell in the range of 100 to 1000 nM.
